What was measured:
expanded CD3+ T cells = experiment: T cell enhancement of cytokines: IL2 measurement (HTRF) in expanded CD3+ T cells stimulated with anti-CD3/anti-CD28; assay type: cell-based, human; conditions: IL-2 measurement
Procedure: T cells are isolated from whole blood of healthy donors by immunomagnetic negative selection following manufacture's protocol (StemCell Technologies, human T cell isolation kit). Purity of isolated cells is assessed by flow cytometry and yields 95-98% CD3^+ T cells. For expansion of T cells, 1×10^6 cells/well are plated in serum free cell expansion media (ThermoFisher) containing 30 U of recombinant human IL2 (R&D) and stimulated with 25 ul of CD3/CD28 beads (Invitrogen) in 24 well plates for 3-4 days. T cells are then expanded in 175 cm flasks and maintained at a cell density of 1 to 2.5×10^6 cells/ml days by addition of ⅔ of fresh media every 2-3 days. After 10-14 days, cells are frozen in BamBanker freezing media (Thermo) and stored in liquid nitrogen.
For IL2 measurement, expanded CD3^+ T cells are dispensed at 100K cells/well (cultured in X-VIVO 10 Serum-free media) and are stimulated with plate-bound anti-CD3 and soluble anti-CD28 in the presence of vehicle or compound of the disclosure at various concentrations for 24 h. As outlined in the manufacturer's protocol (Cisbio), 16 μL of conditioned media is transferred to a white 384-well low volume plate. Following a 24 h incubation with the anti-IL2 antibodies, the homogenous time resolved fluorescence (HTRF) is measured.

MAP4K1 (HPK1) = MAP4K1 (HPK1) (Homo sapiens (Human), UniProt Q92918); experiment: MAP4K1 (HPK1) biochemical enzymatic activity, electrophoretic mobility shift (EZReader 2), ATP at APPKM (26 μM)
Method in brief: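 Enzyme at 0.1-15 nM was incubated with 1.5 μM fluorescent peptide and ATP at the apparent Km (26 μM) in HEPES pH 7.5, MgCl2, DTT and Brij 35. The reaction ran at 25° C for 60-180 min with a 10-point, 4-fold compound series (1% DMSO) and was stopped with EDTA. Substrate and product peptides were resolved by microfluidic mobility shift, and their peak ratio gave activity.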

[1] = Homo sapiens, T-cell, class designation
[2] = Homo sapiens, T-cell, numeric value

Chain of MAP4K1 (HPK1) (Q92918 whole entry): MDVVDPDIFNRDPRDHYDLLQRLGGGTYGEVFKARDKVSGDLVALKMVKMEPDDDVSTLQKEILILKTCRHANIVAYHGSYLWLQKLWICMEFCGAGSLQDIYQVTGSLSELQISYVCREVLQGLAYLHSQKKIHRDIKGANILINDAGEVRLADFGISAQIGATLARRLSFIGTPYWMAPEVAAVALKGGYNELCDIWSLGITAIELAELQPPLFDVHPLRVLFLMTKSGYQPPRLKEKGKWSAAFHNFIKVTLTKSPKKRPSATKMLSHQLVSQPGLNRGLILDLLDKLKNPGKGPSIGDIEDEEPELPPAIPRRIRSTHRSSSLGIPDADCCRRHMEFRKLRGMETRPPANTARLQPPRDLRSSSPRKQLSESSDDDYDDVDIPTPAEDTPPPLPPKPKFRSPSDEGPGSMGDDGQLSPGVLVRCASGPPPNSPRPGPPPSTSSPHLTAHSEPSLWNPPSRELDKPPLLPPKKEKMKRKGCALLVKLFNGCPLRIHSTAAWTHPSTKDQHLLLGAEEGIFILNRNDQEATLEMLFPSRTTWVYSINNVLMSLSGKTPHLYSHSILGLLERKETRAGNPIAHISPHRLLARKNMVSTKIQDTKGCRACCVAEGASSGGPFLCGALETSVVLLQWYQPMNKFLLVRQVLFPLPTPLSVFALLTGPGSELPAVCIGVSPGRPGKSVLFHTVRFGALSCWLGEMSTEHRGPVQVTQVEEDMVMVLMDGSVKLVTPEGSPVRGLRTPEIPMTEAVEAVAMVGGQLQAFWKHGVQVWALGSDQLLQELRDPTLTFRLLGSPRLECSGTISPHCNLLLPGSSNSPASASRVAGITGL

Row | SMILES | EC50 (expanded CD3+ T cells; [1]) [nM] | EC50 (expanded CD3+ T cells; [2]) [nM] | IC50 (MAP4K1 (HPK1); class designation) [nM] | EC50 (expanded CD3+ T cells; class designation) [nM] | EC50 (expanded CD3+ T cells; numeric value) [nM] | IC50 (MAP4K1 (HPK1); numeric value) [nM]
1 | C[C@H]1COC(=O)c2ccc(Nc3cc4c([C@](C)(N)C5CC5)cnc(OC5CC5)c4cn3)nc21 (single isomer, unassigned) [Compound 117] | < 35 | 16 | < 0.3 | – | – | –
2 | C[C@@H]1COC(=O)c2ccc(Nc3cc4c([C@](C)(N)C5CC5)cnc(OC5CC5)c4cn3)nc21 (single isomer, unassigned) [Compound 118] | – | – | 1.1 to 10 | > 55 | 81.7 | 1.28
3 | CC[C@@](C)(N)c1cnc(OC2CC2)c2cnc(Nc3ccc4c(n3)CC(C)(C)OC4=O)cc12 (single isomer, unassigned) [Compound 132] | – | – | < 0.3 | < 35 | 12.9 | 0.18
4 | C[C@](N)(c1cnc(OC2CC2)c2cnc(Nc3ccc4c(n3)C3(CC3)COC4=O)cc12)C1CC1 (single isomer, unassigned) [Compound 146] | > 55 | 60.4 | – | – | – | 0.25
5 | C[C@](N)(c1cnc(OC2CC2)c2cnc(Nc3ccc4c(n3)CC3(CC3)OC4=O)cc12)C1CC1 (single isomer, unassigned) [Compound 147] | 35.1 to 45 | 45.2 | – | – | – | 0.27
6 | CC1(C)COC(=O)c2ccc(Nc3cc4c([C@](C)(N)C5CC5)cnc(OC5CC5)c4cn3)nc21 (single isomer, unassigned) [Compound 151] | < 35 | 27.3 | – | – | – | 0.22
7 | CC[C@]1(C)OC(=O)c2ccc(Nc3cc4c([C@](C)(N)C5CC5)cnc(OC5CC5)c4cn3)nc21 (single isomer, unassigned) [Compound 152] | – | – | 0.31 to 1 | > 55 | 54.4 | 0.42
8 | C[C@@H]1c2nc(Nc3cc4c([C@](C)(N)C5CC5)cnc(OC5CC5)c4cn3)ccc2C(=O)O[C@@H]1C (single isomer, unassigned) [Compound 154] | – | – | < 0.3 | < 35 | 11 | 0.08
9 | C[C@@H]1OC(=O)c2ccc(Nc3cc4c([C@](C)(N)C5CC5)cnc(OC5CC5)c4cn3)nc2[C@@H]1C (single isomer, unassigned) [Compound 155] | – | – | 0.31 to 1 | > 55 | 88.4 | 0.97
10 | C[C@H]1OC(=O)c2ccc(Nc3cc4c([C@](C)(N)C5CC5)cnc(OC5CC5)c4cn3)nc2C12CC2 (single isomer, unassigned) [Compound 167] | – | – | < 0.3 | < 35 | 9.4 | 0.05
11 | C[C@H]1OC(=O)c2ccc(Nc3cc4c([C@](C)(N)C5CC5)cnc(OC5CC5)c4cn3)nc2C1(C)C (single isomer, unassigned) [Compound 171] | – | – | < 0.3 | < 35 | 27.6 | 0.07
12 | CC[C@@](C)(N)c1cnc(OCC(F)(F)F)c2cnc(Nc3ccc4c(n3)[C@@H](C)[C@H](C)OC4=O)cc12 (single isomer, unassigned) [Compound 181] | < 35 | 15.1 | < 0.3 | – | – | –
13 | CC[C@@](C)(N)c1cnc(OCC(F)(F)F)c2cnc(Nc3ccc4c(n3)[C@@H](C)[C@H](C)OC4=O)cc12 (single isomer, unassigned) [Compound 182] | – | – | 1.1 to 10 | 35.1 to 45 | 38.8 | 2.92
14 | COCC(C)(N)c1cnc(OC2CC2)c2cnc(Nc3ccc4c(n3)[C@@H](C)[C@H](C)OC4=O)cc12 (single isomer, unassigned) [Compound 184, (7S,8R)-2-((5-((R)-2-Amino-1-methoxypropan-2-yl)-8-cyclopropoxy-2,7-naphthyridin-3-yl)amino)-7,8-dimethyl-7,8-dihydro-5H-pyrano[4,3-b]pyridin-5-one or (7S,8R)-2-((5-((S)-2-amino-1-methoxypropan-2-yl)-8-cyclopropoxy-2,7-naphthyridin-3-yl)amino)-7,8-dimethyl-7,8-dihydro-5H-pyrano[4,3-b]pyridin-5-one] | – | – | < 0.3 | < 35 | 33.4 | 0.27
15 | COc1ncc(C(C)(C)N)c2cc(Nc3ccnc(C(C)(C)C)n3)ncc12 [Compound 3, 5-(2-Aminopropan-2-yl)-N-(2-(tert-butyl)pyrimidin-4-yl)-8-methoxy-2,7-naphthyridin-3-amine] | > 55 | 108 | – | – | – | 0.36
16 | COc1ccc(C(C)(C)N)c2cc(Nc3ccnc(C(C)(C)F)n3)ncc12 [Compound 5, 5-(2-Aminopropan-2-yl)-N-(2-(2-fluoropropan-2-yl)pyrimidin-4-yl)-8-methoxyisoquinolin-3-amine] | 35.1 to 45 | 37.1 | 0.31 to 1 | – | – | 0.37
17 | COc1ncc(C(C)(C)N)c2cc(Nc3ccnc(C(C)(C)F)n3)ncc12 [Compound 7] | < 35 | 21.7 | 0.31 to 1 | – | – | 0.91
18 | COc1ncc(C(C)(C)N)c2cc(Nc3ccc4c(n3)CCNC4=O)ncc12 [Compound 11] | < 35 | 10.9 | 0.31 to 1 | – | – | 0.33
19 | COc1ncc(C(C)(C)N)c2cc(Nc3ccc4c(n3)CCOC4=O)ncc12 [Compound 12] | < 35 | 11 | 0.31 to 1 | – | – | 0.31
20 | CC[C@H](C)n1nc(Nc2cc3c(C(C)(C)N)cnc(OC)c3cn2)ccc1=O [Compound 14] | – | – | 0.31 to 1 | 45.1 to 55 | 51 | 0.64
21 | CC[C@@H](C)n1nc(Nc2cc3c(C(C)(C)N)cnc(OC)c3cn2)ccc1=O [Compound 15] | < 35 | 30.9 | 0.31 to 1 | – | – | –
22 | CC[C@H](C)c1nc(Nc2cc3c(C(C)(C)N)cnc(OC)c3cn2)ccc1C#N [Compound 19] | – | – | < 0.3 | < 35 | 27.3 | 0.3
23 | CC[C@H](C)c1nc(Nc2cc3c(C(C)(C)N)cnc(OC)c3cn2)cnc1C#N [Compound 20] | – | – | 0.31 to 1 | 45.1 to 55 | 51.1 | 0.73
24 | CC[C@@H](C)c1nc(Nc2cc3c(C(C)(C)N)cnc(OC)c3cn2)cnc1C#N [Compound 21] | – | – | 0.31 to 1 | 45.1 to 55 | 48.7 | 0.85
25 | COc1ncc(C(C)(C)N)c2cc(Nc3ccc4c(n3)C(C)(C)OC4=O)ncc12 [Compound 26] | < 35 | 14 | 0.31 to 1 | – | – | 0.55
26 | COc1ncc(C(C)(C)N)c2cc(Nc3ccc(C#N)c(C(C)(C)F)n3)ncc12 [Compound 28] | < 35 | 31.4 | 0.31 to 1 | – | – | 0.67
27 | COc1ncc(C(C)(C)N)c2cc(Nc3ccc4c(n3)CC3(CC3)OC4=O)ncc12 [Compound 33] | < 35 | 9.3 | < 0.3 | – | – | 0.13
28 | COc1ncc(C(C)(C)N)c2cc(Nc3ccc4c(n3)CC(C)(C)CC4=O)ncc12 [Compound 34, 2-((5-(2-Aminopropan-2-yl)-8-methoxy-2,7-naphthyridin-3-yl)amino)-7,7-dimethyl-7,8-dihydroquinolin-5 (6H)-one] | 35.1 to 45 | 45.6 | < 0.3 | – | – | 0.24
29 | CNc1ncc(C(C)(C)N)c2cc(Nc3ccc4c(n3)CC(C)(C)OC4=O)ncc12 [Compound 35] | – | – | 0.31 to 1 | < 35 | 23.5 | 0.41

Reference: patent US11534441B2, “MAP4K1 inhibitors” (Blueprint Medicines Corporation, priority 2020, dated 2022)
